Test results taken from patent US9157104B2, “Method to improve phosphate solubilization in plants” (Consiglio Nazionale delle Ricerche, priority 2009, dated 2015).

Assays:
S. meliloti 1021 = assay: Microarray gene expression of 1021 cells treated with 0.5 mM compound; conditions: P-sufficient (13 mM);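 also: cells were harvested 3 h after the start of each treatment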
Description: For P starvation experiments, cells of 1021 wild-type and RD64 strains were grown at 30° C. to mid exponential phase (OD600=0.6) in RMM broth containing 1% (w/v) mannitol as carbon source and 13 mM P, washed with RMM containing 0 P, resuspended in the same medium and then divided into three cultures. No P (−P), 1.0 mM P (P-starved cells) or 13 mM P (+P cells also named P-sufficient cells) was added into the three cultures, respectively. The P-starved and P-sufficient 1021 wild type cells were treated for 3.0 hours with 0.5 mM IAA. […] To rule out that this bacteria could be partially starved for Trp, RD64 cells were also treated with 0.5 mM Trp and used for microarrays and RT-PCR analyses. […] After 3 hours of each treatment, cell batches were collected, freezed and stored at −80° C. for use in experiments.

[1] = system: pho operon genes in S. meliloti cells; assay: Quantitative RT-PCR analysis of pho operon genes; format: cell-based; conditions: P-sufficient (13 mM K-phosphate); vs untreated 1021 cells; compounds 0.5 mM, 3 hours
Description: FIG. S1. Quantitative RT-PCR analysis of pho operon genes in S. meliloti cells under P-sufficient conditions (13 mM K-phosphate). The relative expression level was >1 for genes more highly expressed in RD64 and in 1021 cells treated for 3 hours with 0.5 mM IAA, Ind, Trp, ICA and 2,4-D. The relative expression level was <1 for genes more highly expressed in 1021 cells (control). Error bars represent the standard deviation from three independent biological experiments.
FIG. 1. Quantitative RT-PCR analysis of pho operon genes expression in S. meliloti cells under P-starving conditions. The relative expression level was >1 for genes more highly expressed in RD64 and in 1021 cells treated for 3 hours with 0.5 mM IAA, Ind, Trp, ICA and 2,4-D. The relative expression level was <1 for genes more highly expressed in 1021 cells (control). Error bars represent the standard deviation from five independent biological experiments (p<0.05).
Total RNA from P-sufficient and P-starved cells was isolated as previously described (5). cDNA were synthesized with the StrataScript™ reverse transcription reagents (Stratagene) and random hexamers as primers. Quantitative PCR was performed with the Power SYBR PCR Master Mix (Applied Biosystems). Reactions were run on the iCycler iQ (Bio-Rad). The thermo cycling condition were: 15 min at 95° C., 40 cycles of denaturation at 95° C. for 20 s, annealing (20 s) and extension (35 s) at 72° C. Specific primer pairs, designed using the Primer3 software, are shown.
smc02641 and smc00128 were used as housekeeping genes for data normalization in the comparative Ct method as previously described (8). Phosphatase Activity

[2] = Soluble phosphate release into bacterial free medium containing 5% PR; conditions: sterilized medium, level comparable to that released during Mt-RD64 plant growth (115.2 mg/l)
Excerpt: FIG. 4. Changes in soluble phosphate release into the bacterial free medium containing 5% phosphate rock (PR) as P source (P-limiting conditions for bacteria growing in a minimal media with PR). […] The amounts of each added organic acids derived from the data obtained in HPLC analysis and were reported in the Material and Methods section. Data are the mean±SD of five independent biological experiments (p<0.006). The concentration of soluble phosphate was estimated using a modification of Fiske and Subarrow method as described by […] et al. (37). […] Bacterial free medium was also treated with 0.5 mM IAA solution. A media that simulates growth is a media without bacteria or their supernatant. The media comprises only RP and the organic acids used as purified powder commercially available (SIGMA), the organic acids concentration used are that produced by the bacteria when grown in a defined media (with IAA, or without, or from RFD64).

O=C(O)COc1ccc(Cl)cc1Cl [2,4-D, 2,4-dichlorophenoxyacetic acid]
pho genes among those significantly affected (microarray) (S. meliloti 1021; 1021 + 0.5 mM compound vs untreated 1021): did not find any pho genes | M (log2 ratio of intensities) SMa1077 nex18 (S. meliloti 1021; 1021 + 2,4-D vs untreated 1021): 2.581 | M (log2 ratio of intensities) SMa1128 degP4 (S. meliloti 1021; 1021 + 2,4-D vs untreated 1021): 1.552 | M (log2 ratio of intensities) SMb21221 smb21221 (S. meliloti 1021; 1021 + 2,4-D vs untreated 1021): 1.027 | M (log2 ratio of intensities) SMc00151 gph1 (S. meliloti 1021; 1021 + 2,4-D vs untreated 1021): −0.8713 | M (log2 ratio of intensities) SMc00335 rpsA (S. meliloti 1021; 1021 + 2,4-D vs untreated 1021): −0.7145 | M (log2 ratio of intensities) SMc00363 rpm1 (S. meliloti 1021; 1021 + 2,4-D vs untreated 1021): −0.8021 | M (log2 ratio of intensities) SMc00591 smc00591 (S. meliloti 1021; 1021 + 2,4-D vs untreated 1021): 0.8629 | M (log2 ratio of intensities) SMc00869 atpF2 (S. meliloti 1021; 1021 + 2,4-D vs untreated 1021): −1.318 | M (log2 ratio of intensities) SMc00912 groES1 (S. meliloti 1021; 1021 + 2,4-D vs untreated 1021): −1.272 | M (log2 ratio of intensities) SMc01214 smc01214 (S. meliloti 1021; 1021 + 2,4-D vs untreated 1021): −1.039 | M (log2 ratio of intensities) SMc01291 rpmD (S. meliloti 1021; 1021 + 2,4-D vs untreated 1021): −0.9964 | M (log2 ratio of intensities) SMc01298 rplX (S. meliloti 1021; 1021 + 2,4-D vs untreated 1021): −1.26 | M (log2 ratio of intensities) SMc01299 rplN (S. meliloti 1021; 1021 + 2,4-D vs untreated 1021): −1.587 | M (log2 ratio of intensities) SMc01300 rpsQ (S. meliloti 1021; 1021 + 2,4-D vs untreated 1021): −0.9524 | M (log2 ratio of intensities) SMc01301 rpmC (S. meliloti 1021; 1021 + 2,4-D vs untreated 1021): −2.007 | M (log2 ratio of intensities) SMc01319 rplJ (S. meliloti 1021; 1021 + 2,4-D vs untreated 1021): −1.788 | M (log2 ratio of intensities) SMc01326 tufB (S. meliloti 1021; 1021 + 2,4-D vs untreated 1021): −1.664 | M (log2 ratio of intensities) SMc01858 smc01858 (S. meliloti 1021; 1021 + 2,4-D vs untreated 1021): −1.083 | M (log2 ratio of intensities) SMc01883 smc01883 (S. meliloti 1021; 1021 + 2,4-D vs untreated 1021): −0.8788 | M (log2 ratio of intensities) SMc02340 smc02340 (S. meliloti 1021; 1021 + 2,4-D vs untreated 1021): −1.408 | M (log2 ratio of intensities) SMc02498 atpH (S. meliloti 1021; 1021 + 2,4-D vs untreated 1021): −1.251 | M (log2 ratio of intensities) SMc02692 rplY (S. meliloti 1021; 1021 + 2,4-D vs untreated 1021): −0.8486 | M (log2 ratio of intensities) SMc02717 leuA1 (S. meliloti 1021; 1021 + 2,4-D vs untreated 1021): −0.8087 | M (log2 ratio of intensities) SMc02905 dnaX (S. meliloti 1021; 1021 + 2,4-D vs untreated 1021): −0.7264 | M (log2 ratio of intensities) SMc03805 tesB (S. meliloti 1021; 1021 + 2,4-D vs untreated 1021): 0.9991 | M (log2 ratio of intensities) SMc03859 rpsP (S. meliloti 1021; 1021 + 2,4-D vs untreated 1021): −0.7104 | M (log2 ratio of intensities) SMc03979 gap (S. meliloti 1021; 1021 + 2,4-D vs untreated 1021): −1.065 | M (log2 ratio of intensities) SMc04003 rpmJ (S. meliloti 1021; 1021 + 2,4-D vs untreated 1021): −1.331 | phoB regulatory gene expression (qRT-PCR) [1]: unaffected

O=C(O)CCC(O)C(=O)O (stereo not shown) [2-hydroxyglutaric acid]
P solubilization upon exogenous addition of 2-hydroxyglutaric acid [2]: highest
